Measurements reported in patent publication US20240300924A1, “PYRAZOLE DERIVATIVE COMPOUND, ADHESIVE COMPOSITION COMPRISING SAME, AND ADHESIVE FILM COMPRISING SAME” (LG CHEM, LTD., priority 2021, published 2024).
Entries after “also recorded” stand apart in the source; their conditions may differ.

Columns and labels:
Format in all cases: physicochemical
[1] = Maximum absorption wavelength of the adhesive composition (solution), UV-vis; conditions: adhesive composition in MEK; UV-vis apparatus (Shimazu UV-3600)
Source text: (§1) Based on 100 parts by weight a solid content except for a solvent in an adhesive composition, 95.4 parts by weight of an adhesive material (AD-701 solid content, LG Chem.), 0.29 part by weight of Compound P1, 0.1 part by weight of an isocyanate-based cross-linking agent (T39M, Soken Chemical & Engineering Co., Ltd.), 0.2 part by weight of a silane-based coupling agent (T-789J, Soken Chemical & Engineering Co., Ltd.), 0.5 part by weight of an antioxidant (Kinox-80, Hannong Chemicals Inc.), 1.5 parts by weight of an antistatic agent (FC-4400, 3M), 2 parts by weight of a hindered amine light stabilizer (Tinuvin 123, BASF SE), and 0.001 part by weight of a catalyst (dibutyltin dilaurate, Sigma-Aldrich) were added to the adhesive composition, the solvent (methyl ethyl ketone, MEK) was added thereto in an amount of 25 parts by weight based on the total parts by weight of the adhesive composition, and a release layer (PET) was coated with the adhesive composition mixed using a mixer (Shaker, SKC 6100, JEIO Tech.) to have a thickness of 22 μm to 23 μm using a knife bar coating apparatus (KP-3000, Kipae E&T Co., Ltd.), thereby preparing an adhesive film. After coating, the release layer was removed, and the adhesive film and a binder resin film (TAC: cellulose triacetate) were sequentially laminated on glass through lamination, thereby producing a sample.
(§2) The maximum absorption wavelength λmax (nm) of each of the adhesive composition and the adhesive film was measured using a UV-vis apparatus (Shimazu UV-3600). In addition, the transmittance of the sample for light with a wavelength of 390 to 450 nm was measured by the UV-vis apparatus (Shimazu UV-3600). Under conditions of light fastness 55,600 lx*48 hours; under conditions of heat resistance 80° C. and for 500 hours; or under conditions of moisture resistance 60° C., 90% RH and for 500 hours, the sample was each exposed, and then the transmittance for light with a wavelength of 390 to 450 nm was re-measured. ΔT was calculated by dividing the value obtained by […] by the transmittance value immediately after the sample was produced, and the results under the evaluation conditions are shown in Table 1. Furthermore, the transmittance of the sample for light in a region with a wavelength of 450 nm or more was measured by the UV-vis apparatus (Shimazu UV-3600). Further, the solubility of Compound p1 to methyl ethyl ketone (MEK) was measured under conditions of 1 atm and room temperature.
(§3) Experiments were performed under the same conditions as in Example 1, except that Compounds P3 to P10, Compound P15 and Comparative Compounds Z1 and Z2 were used instead of Compound P1, respectively, in Example 1, and the experimental results are shown in the following Table 1.

[2] = Maximum absorption wavelength of the adhesive film (thin film), UV-vis; conditions: adhesive film 22 μm to 23 μm; UV-vis apparatus (Shimazu UV-3600)
Source text: as §1, §2, §3

[3] = Moisture resistance of adhesive film sample (change in transmittance ΔT); conditions: ΔT of transmittance for light of 390 to 450 nm, 60° C., 90% RH for 500 hours
Source text: as §1, §2
(§4) ΔT (%)={(transmittance measured immediately after the optical film was prepared−transmittance re-measured after the optical film is exposed to each condition of light fastness, heat resistance, and moisture resistance)/transmittance measured immediately after the optical film is prepared}×100
(§5) • ◯: ΔT 1.5% or less • Δ: ΔT more than 1.5% and 3% or less • X: ΔT more than 3%
(§6) The light fastness, heat resistance and moisture resistance were evaluated as ◯, Δ, and X based on whether the ΔT was 1.5% or less, more than 1.5% and 3% or less, or more than 3%, respectively.

[4] = Wavelength compatibility (transmittance of sample in region with 450 nm or more); conditions: for Wavelength compatibility: transmittance of adhesive film sample in region with wavelength of 450 nm or more; for wavelength compatibility (in words): verbal assessment
Method: as §2
• ◯: transmittance of 90% or more in region with 450 nm or more • Δ: transmittance of 80% or more in region with 450 nm or more • X: transmittance of 80% or less in region with 450 nm or more
The wavelength compatibility was evaluated as ◯, Δ, and X based on whether the transmittance in a region with 450 nm or more was 90% or more, 80% or more, or 80% or less, respectively.

[5] = Light fastness of adhesive film sample (change in transmittance ΔT); conditions: ΔT of transmittance for light of 390 to 450 nm; adhesive film sample with 0.29 part by weight compound; 55,600 lx*48 hours
Source text: as §1, §2, §4, §5, §6

[6] = Heat resistance of adhesive film sample (change in transmittance ΔT); conditions: ΔT of transmittance for light of 390 to 450 nm, 80° C. for 500 hours
Source text: as §1, §2, §4, §5, §6

[7] = Solubility of compound in methyl ethyl ketone (MEK); conditions: solubility to 10 g of methyl ethyl ketone; 1 atm and room temperature
Method: as §2
• ◯: 0.3 wt. % or more • Δ: more than 0.1 wt. % and less than 0.3 wt. % • X: 0.1 wt. % or less

[8] = Solution-phase UV-Vis spectrum (FIG. 2), wavelength distribution; conditions: P3 compared with Comparative Compound Z2
Source text: FIG. 2 illustrates the solution-phase UV-Vis spectra of Compound P3 according to an exemplary embodiment of the present disclosure and Comparative Compound Z2 used in Comparative Example 2.
Since the compound according to an exemplary embodiment of the present disclosure may improve the light blocking efficiency or reduce the reflectance to external light by strongly absorbing light, the compound is excellent in wavelength compatibility in being included in an optical film. The wavelength compatibility can be confirmed by the wavelength distribution and the optimization appearing in the UV-Vis spectrum. For example, FIG. 2 illustrates the solution-phase UV-Vis spectra of Compound P3 according to an exemplary embodiment of the present disclosure and Comparative Compound Z2 used in Comparative Example 2. In FIG. 2, the dotted line is the solution-phase UV-Vis spectrum for Comparative Compound Z2, and the solid line is the solution-phase UV-Vis spectrum for Compound P3 according to an exemplary embodiment of the present disclosure.

SMILES: Cc1nn(-c2ccccc2)c(O)c1C=C1C(=O)NC(=O)NC1=O [Comparative Compound Z1, reference compound]
- λmax (nm) (Solution) [1]: 412 nm
- λmax (nm) (Thin film) [2]: 425 nm
- Moisture resistance [3]: Δ (ΔT more than 1.5% and 3% or less)
- Wavelength compatibility [4]: Δ (transmittance of 80% or more in region with 450 nm or more)

SMILES: CC1=NN(c2ccccc2)C(=O)/C1=C\c1c(C)nn(-c2ccccc2)c1O [Comparative Compound Z2, reference compound]
- λmax (nm) (Solution) [1]: 405 nm
- λmax (nm) (Thin film) [2]: 403 nm
- Light fastness [5]: ∘
- Heat resistance [6]: ∘
- Moisture resistance [3]: ∘
- MEK solubility [7]: ∘
- wavelength compatibility (in words) [4]: remarkably deteriorates compared to Examples 1 to 10

SMILES: Cc1nn(-c2ccccc2)c(O)c1C=C1C(=O)N(C2CCCCC2)C(=O)N(C2CCCCC2)C1=O [Compound P1]
- λmax (nm) (Solution) [1]: 411 nm
- λmax (nm) (Thin film) [2]: 407 nm
- Light fastness [5]: Δ (ΔT more than 1.5% and 3% or less)
- Heat resistance [6]: Δ (ΔT more than 1.5% and 3% or less)
- Moisture resistance [3]: ∘
- MEK solubility [7]: Δ (more than 0.1 wt. % and less than 0.3 wt. %)
- Wavelength compatibility [4]: ∘

SMILES: Cc1ccccc1-n1nc(C)c(C=C2C(=O)N(C3CCCCC3)C(=O)N(C3CCCCC3)C2=O)c1O [Compound P3]
- λmax (nm) (Solution) [1]: 404 nm
- λmax (nm) (Thin film) [2]: 400 nm
- Light fastness [5]: ∘
- Heat resistance [6]: ∘
- Moisture resistance [3]: ∘
- MEK solubility [7]: ∘
- Wavelength compatibility [4]: ∘
- wavelength compatibility (in words) [4]: excellent wavelength compatibility
- wavelength distribution in solution-phase UV-Vis spectrum [8]: narrower wavelength distribution than Comparative Compound Z2; also recorded: wavelength distribution narrower and more optimized than Comparative Compound Z2

SMILES: Cc1ccc(-n2nc(C)c(C=C3C(=O)N(C4CCCCC4)C(=O)N(C4CCCCC4)C3=O)c2O)c(C)c1 [Compound P4]
- λmax (nm) (Solution) [1]: 403 nm
- λmax (nm) (Thin film) [2]: 399 nm
- Light fastness [5]: ∘
- Heat resistance [6]: ∘
- Moisture resistance [3]: ∘
- MEK solubility [7]: ∘
- Wavelength compatibility [4]: ∘

SMILES: O=C1C(=Cc2c(-c3ccccc3)nn(-c3ccccc3)c2O)C(=O)N(C2CCCCC2)C(=O)N1C1CCCCC1 [Compound P5]
- λmax (nm) (Solution) [1]: 407 nm
- λmax (nm) (Thin film) [2]: 406 nm
- Light fastness [5]: Δ (ΔT more than 1.5% and 3% or less)
- Heat resistance [6]: ∘
- Moisture resistance [3]: ∘
- MEK solubility [7]: Δ (more than 0.1 wt. % and less than 0.3 wt. %)
- Wavelength compatibility [4]: ∘

SMILES: Cc1ccccc1-n1nc(-c2ccccc2)c(C=C2C(=O)N(C3CCCCC3)C(=O)N(C3CCCCC3)C2=O)c1O [Compound P6]
- λmax (nm) (Solution) [1]: 400 nm
- λmax (nm) (Thin film) [2]: 400 nm
- Light fastness [5]: ∘
- Heat resistance [6]: Δ (ΔT more than 1.5% and 3% or less)
- Moisture resistance [3]: ∘
- MEK solubility [7]: Δ (more than 0.1 wt. % and less than 0.3 wt. %)
- Wavelength compatibility [4]: ∘

SMILES: Cc1ccc(-n2nc(-c3ccccc3)c(C=C3C(=O)N(C4CCCCC4)C(=O)N(C4CCCCC4)C3=O)c2O)c(C)c1 [Compound P7]
- λmax (nm) (Solution) [1]: 399 nm
- λmax (nm) (Thin film) [2]: 399 nm
- Light fastness [5]: ∘
- Heat resistance [6]: ∘
- Moisture resistance [3]: ∘
- MEK solubility [7]: ∘
- Wavelength compatibility [4]: ∘

SMILES: CC(C)c1nn(-c2ccccc2)c(O)c1C=C1C(=O)N(C2CCCCC2)C(=O)N(C2CCCCC2)C1=O [Compound P8]
- λmax (nm) (Solution) [1]: 406 nm
- λmax (nm) (Thin film) [2]: 408 nm
- Light fastness [5]: ∘
- Heat resistance [6]: Δ (ΔT more than 1.5% and 3% or less)
- Moisture resistance [3]: ∘
- MEK solubility [7]: Δ (more than 0.1 wt. % and less than 0.3 wt. %)
- Wavelength compatibility [4]: ∘

SMILES: Cc1ccccc1-n1nc(C(C)C)c(C=C2C(=O)N(C3CCCCC3)C(=O)N(C3CCCCC3)C2=O)c1O [Compound P9]
- λmax (nm) (Solution) [1]: 403 nm
- λmax (nm) (Thin film) [2]: 399 nm
- Light fastness [5]: ∘
- Heat resistance [6]: ∘
- Moisture resistance [3]: ∘
- MEK solubility [7]: ∘
- Wavelength compatibility [4]: ∘

SMILES: Cc1ccc(-n2nc(C(C)C)c(C=C3C(=O)N(C4CCCCC4)C(=O)N(C4CCCCC4)C3=O)c2O)c(C)c1 [Compound P10]
- λmax (nm) (Solution) [1]: 403 nm
- λmax (nm) (Thin film) [2]: 398 nm
- Light fastness [5]: ∘
- Heat resistance [6]: ∘
- Moisture resistance [3]: ∘
- MEK solubility [7]: ∘
- Wavelength compatibility [4]: ∘

SMILES: Cc1ccccc1-n1nc(C(C)C)c(C=C2C(=O)N(c3ccccc3)C(=O)N(c3ccccc3)C2=O)c1O [Compound P15]
- λmax (nm) (Solution) [1]: 402 nm
- λmax (nm) (Thin film) [2]: 398 nm
- Light fastness [5]: ∘
- Heat resistance [6]: ∘
- Moisture resistance [3]: ∘
- MEK solubility [7]: Δ (more than 0.1 wt. % and less than 0.3 wt. %)
- Wavelength compatibility [4]: ∘
